Measurements from US6517812B1, “Inhibition of psychostimulant-induced and nicotine-induced craving” (The General Hospital Corporation, priority 1997, dated 2003).

Key:
[1] = test system: Male Harlan Sprague-Dawley rats; experiment: Arterial blood pressure and heart rate monitoring in rat
Description: All procedures were carried out in accordance with NIH guidelines. Male Harlan Sprague-Dawley rats (225-300 gm) were anesthetized briefly with 1.5% halothane in oxygen for insertion of left femoral arterial and venous cannulae and placement of tracheostomy for mechanical ventilation (using a 16 gauge intravenous catheter, Inste-W, Becton Dickinson, Sandy, Utah). All wounds were infiltrated with 1% lidocaine before incision. Following surgery, the inspired halothane concentration was reduced to 0.7% and rats were paralyzed with 2 mg/kg intravenous pancuronium, followed by a continuous intravenous infusion of pancuronium at 2 mg/kg/hr. Pancuronium was dissolved in normal saline administered at 5 ml/kg/hr. Rats were mechanically ventilated (in a small animal volume controlled ventilator, Harvard Apparatus, Inc., South Natick, Mass.) with a 80/20 air/oxygen mixture, an inspiratory to expiratory ratio of 1:1, and an initial tidal volume of 3.0 ml at a rate of 40 breaths per minute. Ventilation parameters were adjusted to maintain normal arterial blood gases (pH=7.40±0.01, PaCO2=40±2, PaO2=145±10). Arterial blood samples (150 μl) withdrawn from cannula were analyzed for arterial partial pressures of oxygen, carbon dioxide, and pH (Ciba-Coming Model 1304) before administration of drugs, and at the end of each experiment before sacrifice, to ensure animal stability. Arterial blood pressure and rectal temperature were monitored throughout the experiment. […] Rats torsos were wrapped in two heating blankets (Gaymar, Orchid Park, N.Y.) circulating warm water to maintain core temperature at 37-38° C. […]
Regional cortical blood flow was determined by LDF (Perimed, PF2B, Stockholm, Sweden) as described previously (Ayata, et al., 1996, J. Cereb. Blood Flow Metab., 16:539-541). […] All data were collected, stored, and analyzed using MacLab/8 data acquisition and analysis system (ADInstruments, Mountain View, Calif.). Arterial pressure was continuously monitored and the data stored; heart rate was calculated from arterial pressure pulses by the data acquisition software. […]

rat frontal cortex [2] = experiment: BOLD fMRI in drug-naive rat after IV cocaine; format: in vivo
Description: All procedures were carried out in accordance with NIH guidelines. Male Harlan Sprague-Dawley rats (225-300 gm) were anesthetized briefly with 1.5% halothane in oxygen for insertion of left femoral arterial and venous cannulae and placement of tracheostomy for mechanical ventilation (using a 16 gauge intravenous catheter, Inste-W, Becton Dickinson, Sandy, Utah). All wounds were infiltrated with 1% lidocaine before incision. Following surgery, the inspired halothane concentration was reduced to 0.7% and rats were paralyzed with 2 mg/kg intravenous pancuronium, followed by a continuous intravenous infusion of pancuronium at 2 mg/kg/hr. Pancuronium was dissolved in normal saline administered at 5 ml/kg/hr. Rats were mechanically ventilated (in a small animal volume controlled ventilator, Harvard Apparatus, Inc., South Natick, Mass.) with a 80/20 air/oxygen mixture, an inspiratory to expiratory ratio of 1:1, and an initial tidal volume of 3.0 ml at a rate of 40 breaths per minute. […] Arterial blood samples (150 μl) withdrawn from cannula were analyzed for arterial partial pressures of oxygen, carbon dioxide, and pH (Ciba-Coming Model 1304) before administration of drugs, and at the end of each experiment before sacrifice, to ensure animal stability. Arterial blood pressure and rectal temperature were monitored throughout the experiment. […]

[3] = test system: human brain, limbic and paralimbic regions; experiment: BOLD fMRI of brain activation after cocaine infusion (KS maps, pre vs post infusion); format: in vivo; conditions: voxels p<10^−5, four subjects
Description: Scanning was performed with a quadrature head-coil and a 1.5 T MR scanner (General Electric) modified for echo-planar imaging (Advanced NMR). Imaging involved the following protocol. First, a sagittal localizer scan [conventional T1-weighted spoiled gradient refocused gradient echo (SPGR) sequence; through-plane resolution=2.8 mm; 60 slices] was performed to orient, for subsequent scans, 15 contiguous axial slices covering the whole brain. This scan was also used as the structural scan for Talairach transformation. Next, an automated shimming technique was used to optimize B0 homogeneity (Reese et al., 1995, J. Magn. Reson. Imaging 5:739-745). This was followed by a SPGR T1-weighted flow-compensated scan (resolution=1.6 mm×1.6 mm×8 mm) scan, which was primarily obtained to aid Talairach transformation during data analysis (see Breiter et al., 1996, Arch. Gen. Psychiatry 53:595-606). The fourth scan was a T1-weighted echo planar inversion recovery sequence (TI=1200 msec, in-plane resolution=1.57 mm) for high-resolution structural images to be used in preliminary statistical maps, but not with Talairach transformed or averaged maps. Finally, BOLD imaging was performed using an asymmetric spin echo T2*-weighted sequence (TR=8000, TE=50, 180 refocusing pulse offset by −25 ms; FOV=40×20 cm; in-plane resolution=3.125 mm; through-plane resolution=8 mm; 15 contiguous axial slices covering the whole brain) to measure ‘activation’ (local changes in blood flow and oxygenation) (Kwong et al., 1992, Proc. Natl. Acad. Sci. 89:5675-5679; Ogawa et al., 1992, Proc. Natl. Acad. Sci. 89:5957-5955; Bandettini et al., 1992, Magn. Reson. Med. 25:390-397). Images were acquired interleaved for 136 time points for each infusion.
Motion correction: To reduce head motion, each subject was positioned using a bitebar, and echo-planar data was motion corrected using an algorithm (Jiang et al., 1995, Hun. Brain Mapp. 3:1-12) adapted from Woods et al (1992), and described elsewhere (Breiter et al., 1996, Arch. Gen. Psychiatry 53:595-606). […] After motion correction, time-series data were inspected to assure that no data set evidenced residual motion in the form of cortical rim or ventricular artifacts >1 voxel.
Talairach transformation: Each individual's set of infusion related functional images, along with the associated conventional structural scans, were transformed into Talairach space (Talairach et al., 1988, New York: Thieme Medical Publishers; Breiter et al., 1996, Arch. Gen. Psychiatry 53:595-606; Breiter et al., 1996, Neuron 17:875-887) and resliced in the coronal orientation over 57 slices with isotropic voxel dimensions (x,y,z=3.125 mm). […]

rat frontal cortex [4] = experiment: Laser Doppler-flowmetry (LDF) of regional cortical blood flow (CBF) in rat; format: in vivo
Description: All procedures were carried out in accordance with NIH guidelines. Male Harlan Sprague-Dawley rats (225-300 gm) were anesthetized briefly with 1.5% halothane in oxygen for insertion of left femoral arterial and venous cannulae and placement of tracheostomy for mechanical ventilation (using a 16 gauge intravenous catheter, Inste-W, Becton Dickinson, Sandy, Utah). All wounds were infiltrated with 1% lidocaine before incision. Following surgery, the inspired halothane concentration was reduced to 0.7% and rats were paralyzed with 2 mg/kg intravenous pancuronium, followed by a continuous intravenous infusion of pancuronium at 2 mg/kg/hr. Pancuronium was dissolved in normal saline administered at 5 ml/kg/hr. Rats were mechanically ventilated (in a small animal volume controlled ventilator, Harvard Apparatus, Inc., South Natick, Mass.) with a 80/20 air/oxygen mixture, an inspiratory to expiratory ratio of 1:1, and an initial tidal volume of 3.0 ml at a rate of 40 breaths per minute. Ventilation parameters were adjusted to maintain normal arterial blood gases (pH=7.40±0.01, PaCO2=40±2, PaO2=145±10). Arterial blood samples (150 μl) withdrawn from cannula were analyzed for arterial partial pressures of oxygen, carbon dioxide, and pH (Ciba-Coming Model 1304) before administration of drugs, and at the end of each experiment before sacrifice, to ensure animal stability. Arterial blood pressure and rectal temperature were monitored throughout the experiment. […] Rats torsos were wrapped in two heating blankets (Gaymar, Orchid Park, N.Y.) circulating warm water to maintain core temperature at 37-38° C. To minimize MRI motion artifact, rats were placed into a custom plastic cradle attached to a head frame machined from delrin plastic (David Kopf Instruments, Fremont, Calif.); heads were fixed with plastic screws inserted into the ear canals and a bar inserted under the front incisors. Rat heads were shaved and covered with gel toothpaste to reduce magnetic susceptibility artifacts arising from air-tissue interfaces; ear canals and oropharynx were also filled with toothpaste. A surface coil was secured over the dorsal surface of the head before positioning the animal in the magnet center. Cocaine (RBI, Natick, Mass.), SCH-23390 (RBI, Natick, Mass.), and cocaine methiodide (NIDA, Bethesda, Md.) were dissolved in normal saline and administered in a 0.5 ml volume at a rate of 1 ml/min via the femoral vein. Sixty minutes passed before injections of cocaine were repeated.
Regional cortical blood flow was determined by LDF (Perimed, PF2B, Stockholm, Sweden) as described previously (Ayata, et al., 1996, J. Cereb. Blood Flow Metab., 16:539-541). Rats (n=8) were prepared exactly as for dynamic MR studies and positioned in a standard stereotaxic head frame. With the scalp incised and retracted, two holes (1-2 mm in diameter) were drilled through the skull 2 mm lateral to midline; one hole was 2 mm anterior to bregma overlying frontal cortex, and the other was 8 mm posterior to bregma to examine occipital cortex. The flow probe was positioned directly upon exposed dura mater in a puddle of mineral oil. […] All data were collected, stored, and analyzed using MacLab/8 data acquisition and analysis system (ADInstruments, Mountain View, Calif.). Arterial pressure was continuously monitored and the data stored; heart rate was calculated from arterial pressure pulses by the data acquisition software. […]

[5] = rat frontal cortex, cocaine 0.5 mg/kg IV

Q: `COC(=O)[C@H]1[C@@H](OC(=O)c2ccccc2)C[C@@H]2CC[C@H]1N2C` [cocaine] was tested. Which adverse cardiovascular response ([1]; cocaine doses above 5 mg/kg IV) did it give?
A: The adverse cardiovascular response was “profound hypotension and cardiac arrhythmia”.

Q: What about the “transient increase in arterial blood pressure” value ([1]; cocaine infusion 0.5 mg/kg) of the same compound?
A: Its value is 5-10 mm Hg.

Q: And the “time of return of BOLD contrast to baseline” value (rat frontal cortex [2]; cocaine 0.5 mg/kg IV, after infusion)?
A: The value was 20 min.

Q: And the “maximal R2 (BOLD contrast)” value (rat frontal cortex [2]; cocaine 1 mg/kg IV)?
A: Its value is 2.5 ± 0.6 s⁻¹.

Q: What about the “percent signal change, NAc/SCC Left” value ([3]; retest condition) of the same compound?
A: The value was 2.3%.

Q: What about the “percent signal change, NAc/SCC Right” value ([3]; retest condition) of the same compound?
A: Its value is 2.1%.

Q: And the “percent signal change, NAc/SCC Left” value ([3]; test condition)?
A: The value was 3.8%.

Q: What about the “percent signal change, NAc/SCC Right” value ([3]; test condition) of the same compound?
A: The value was 2.4%.

Q: What about the “maximum increase of cortical CBF over baseline” value (rat frontal cortex [4]; [5]) of the same compound?
A: Its value is 41%.

Q: And the “time to peak CBF” value (rat frontal cortex [4]; [5])?
A: The value was “approximately 3.5 minutes”.

Q: And the “time of return of CBF to baseline” value (rat frontal cortex [4]; rat frontal cortex, cocaine 0.5 mg/kg IV, post infusion)?
A: Its value is no more than 25 min.

Q: What about the “maximum elevation of frontal cortex blood flow” value (rat frontal cortex [4]; rat, LDF, after 1 mg/kg cocaine) of the same compound?
A: The value was 35±3.
